Results from patent US20240116921A1, “LACTAM (HETERO)[…] DERIVATIVES AS INHIBITORS OF ERBB2” (EnLiven Therapeutics, Inc., priority 2020, published 2024).

What was measured:
[1] = target: Ba/F3 ERBB2 A775_G776insYVMA (Homo sapiens, UniProt P04626, DUP772-775, cells depend on it); assay: Cell viability assay, Ba/F3 ERBB2 A775_G776insYVMA; assay type: cell-based, mouse; conditions: Ba/F3 ERBB2 YVMA cells, cell viability, 72 hours, CellTiter Glo; Table B5; read-out: Ba/F3 ERBB2 YVMA, IC50
In short: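 Viability after 72 h compound treatment (37 °C, 5% CO2) was quantified by CellTiter-Glo luminescence of intracellular ATP, with sigmoidal dose-response fitting. Cells were retrovirally engineered Ba/F3 lines whose growth depends on the mutant human ERBB2 in place of IL-3, plated at 3000 per well.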

[2] = target: T1, phosphorylated EGFR (pEGFR) (Homo sapiens, UniProt P00533); assay: Detection of phosphorylated EGFR (pEGFR) in EGF-stimulated A431 cells; assay type: cell-based; conditions: A431 cells (10% FBS), 4 hours incubation, EGF 30 ng/mL 10 minutes, AlphaLISA
T1 construct: performed to measure phosphorylated EGFR levels using A431 cells (10% FBS); endogenous in cells; host or cells: A431
In short: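 AlphaLISA read-out of EGFR phosphorylation after a 10-min EGF pulse (30 ng/mL final). A431 cells (10% FBS) had been exposed to compound for 4 h at 37 °C. IC50 was fitted from % inhibition normalised to DMSO and staurosporine control lysates.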

[3] = target: T2, phosphorylated ERBB2 (pERBB2) (Homo sapiens, UniProt P04626); assay: Detection of phosphorylated ERBB2 (pERBB2) by ELISA in BT-474 cells; assay type: cell-based; conditions: four hours incubation
T2 construct: endogenous in cells; host or cells: BT-474
In short: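 Phospho-ERBB2 in lysates was quantified by sandwich ELISA (A450, TMB) after 4 h compound exposure at 37 °C of BT-474 cells seeded at 2.0×10^4 per well. Compounds tested at 10 µM to 0.01 nM final in four-fold steps; activity normalized to DMSO (0.1%) high and cell-free low controls.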

Chain of Ba/F3 ERBB2 A775_G776insYVMA (P04626 with tags, fused parts or gaps DUP772-775): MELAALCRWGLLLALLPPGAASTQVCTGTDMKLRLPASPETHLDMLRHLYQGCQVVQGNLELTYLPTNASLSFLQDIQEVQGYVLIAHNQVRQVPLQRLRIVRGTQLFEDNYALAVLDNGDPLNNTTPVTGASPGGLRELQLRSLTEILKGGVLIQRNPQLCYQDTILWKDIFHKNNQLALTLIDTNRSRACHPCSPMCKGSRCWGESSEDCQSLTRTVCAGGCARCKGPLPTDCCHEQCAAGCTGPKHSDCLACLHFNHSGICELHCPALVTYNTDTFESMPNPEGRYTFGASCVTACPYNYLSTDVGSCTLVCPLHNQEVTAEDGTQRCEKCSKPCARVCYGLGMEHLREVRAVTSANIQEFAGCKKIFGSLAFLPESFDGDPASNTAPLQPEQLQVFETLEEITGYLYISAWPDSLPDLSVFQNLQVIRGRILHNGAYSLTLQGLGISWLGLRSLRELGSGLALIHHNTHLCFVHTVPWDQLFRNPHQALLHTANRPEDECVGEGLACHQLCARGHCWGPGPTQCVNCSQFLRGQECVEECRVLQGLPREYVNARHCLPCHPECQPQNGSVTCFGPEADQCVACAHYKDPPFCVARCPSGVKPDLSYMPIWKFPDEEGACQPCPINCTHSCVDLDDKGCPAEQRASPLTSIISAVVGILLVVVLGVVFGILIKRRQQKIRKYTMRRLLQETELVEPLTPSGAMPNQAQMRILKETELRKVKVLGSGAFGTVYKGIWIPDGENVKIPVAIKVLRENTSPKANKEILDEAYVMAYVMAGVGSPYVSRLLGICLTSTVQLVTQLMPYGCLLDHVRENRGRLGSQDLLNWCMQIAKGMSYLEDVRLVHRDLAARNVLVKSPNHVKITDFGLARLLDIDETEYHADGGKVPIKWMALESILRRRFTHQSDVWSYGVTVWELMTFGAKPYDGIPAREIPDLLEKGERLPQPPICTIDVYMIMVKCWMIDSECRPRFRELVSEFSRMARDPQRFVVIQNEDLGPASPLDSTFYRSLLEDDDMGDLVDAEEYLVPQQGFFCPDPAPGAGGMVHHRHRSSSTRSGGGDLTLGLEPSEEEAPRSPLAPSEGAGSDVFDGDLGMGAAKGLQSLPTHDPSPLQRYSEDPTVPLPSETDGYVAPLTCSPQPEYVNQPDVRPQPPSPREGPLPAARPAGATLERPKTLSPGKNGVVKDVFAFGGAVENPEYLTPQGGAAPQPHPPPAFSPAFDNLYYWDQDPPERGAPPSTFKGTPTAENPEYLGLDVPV
T1 sequence (P00533 25-1210): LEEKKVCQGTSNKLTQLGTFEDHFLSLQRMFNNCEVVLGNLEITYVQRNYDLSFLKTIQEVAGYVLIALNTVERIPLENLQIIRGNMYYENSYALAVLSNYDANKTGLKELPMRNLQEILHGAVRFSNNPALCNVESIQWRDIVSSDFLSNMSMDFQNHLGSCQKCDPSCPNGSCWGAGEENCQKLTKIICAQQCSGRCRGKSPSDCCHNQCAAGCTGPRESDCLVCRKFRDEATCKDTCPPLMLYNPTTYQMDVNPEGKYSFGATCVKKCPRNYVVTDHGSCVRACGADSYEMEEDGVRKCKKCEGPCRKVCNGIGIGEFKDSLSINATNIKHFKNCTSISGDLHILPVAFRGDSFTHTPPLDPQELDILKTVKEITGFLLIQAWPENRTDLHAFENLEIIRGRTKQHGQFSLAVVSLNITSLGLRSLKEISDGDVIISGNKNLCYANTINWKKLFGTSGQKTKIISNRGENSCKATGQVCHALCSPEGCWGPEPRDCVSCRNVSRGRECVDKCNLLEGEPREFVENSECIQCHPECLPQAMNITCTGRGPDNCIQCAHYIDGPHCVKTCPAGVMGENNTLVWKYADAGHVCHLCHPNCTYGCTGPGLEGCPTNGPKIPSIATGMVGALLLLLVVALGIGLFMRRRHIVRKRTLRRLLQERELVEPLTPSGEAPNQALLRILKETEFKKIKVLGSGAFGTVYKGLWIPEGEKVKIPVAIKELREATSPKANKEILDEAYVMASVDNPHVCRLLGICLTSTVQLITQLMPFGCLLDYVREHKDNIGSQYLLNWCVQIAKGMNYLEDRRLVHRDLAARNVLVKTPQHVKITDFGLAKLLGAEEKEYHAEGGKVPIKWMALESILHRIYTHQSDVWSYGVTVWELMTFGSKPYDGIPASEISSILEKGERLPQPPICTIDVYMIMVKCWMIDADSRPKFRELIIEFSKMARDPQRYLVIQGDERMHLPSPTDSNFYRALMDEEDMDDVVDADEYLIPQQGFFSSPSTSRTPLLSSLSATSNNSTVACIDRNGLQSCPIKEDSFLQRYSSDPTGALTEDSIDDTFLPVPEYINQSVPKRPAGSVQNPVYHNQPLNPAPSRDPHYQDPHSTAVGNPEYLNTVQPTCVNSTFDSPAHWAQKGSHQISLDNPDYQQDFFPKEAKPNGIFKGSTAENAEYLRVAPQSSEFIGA
T2 sequence (P04626 23-1255): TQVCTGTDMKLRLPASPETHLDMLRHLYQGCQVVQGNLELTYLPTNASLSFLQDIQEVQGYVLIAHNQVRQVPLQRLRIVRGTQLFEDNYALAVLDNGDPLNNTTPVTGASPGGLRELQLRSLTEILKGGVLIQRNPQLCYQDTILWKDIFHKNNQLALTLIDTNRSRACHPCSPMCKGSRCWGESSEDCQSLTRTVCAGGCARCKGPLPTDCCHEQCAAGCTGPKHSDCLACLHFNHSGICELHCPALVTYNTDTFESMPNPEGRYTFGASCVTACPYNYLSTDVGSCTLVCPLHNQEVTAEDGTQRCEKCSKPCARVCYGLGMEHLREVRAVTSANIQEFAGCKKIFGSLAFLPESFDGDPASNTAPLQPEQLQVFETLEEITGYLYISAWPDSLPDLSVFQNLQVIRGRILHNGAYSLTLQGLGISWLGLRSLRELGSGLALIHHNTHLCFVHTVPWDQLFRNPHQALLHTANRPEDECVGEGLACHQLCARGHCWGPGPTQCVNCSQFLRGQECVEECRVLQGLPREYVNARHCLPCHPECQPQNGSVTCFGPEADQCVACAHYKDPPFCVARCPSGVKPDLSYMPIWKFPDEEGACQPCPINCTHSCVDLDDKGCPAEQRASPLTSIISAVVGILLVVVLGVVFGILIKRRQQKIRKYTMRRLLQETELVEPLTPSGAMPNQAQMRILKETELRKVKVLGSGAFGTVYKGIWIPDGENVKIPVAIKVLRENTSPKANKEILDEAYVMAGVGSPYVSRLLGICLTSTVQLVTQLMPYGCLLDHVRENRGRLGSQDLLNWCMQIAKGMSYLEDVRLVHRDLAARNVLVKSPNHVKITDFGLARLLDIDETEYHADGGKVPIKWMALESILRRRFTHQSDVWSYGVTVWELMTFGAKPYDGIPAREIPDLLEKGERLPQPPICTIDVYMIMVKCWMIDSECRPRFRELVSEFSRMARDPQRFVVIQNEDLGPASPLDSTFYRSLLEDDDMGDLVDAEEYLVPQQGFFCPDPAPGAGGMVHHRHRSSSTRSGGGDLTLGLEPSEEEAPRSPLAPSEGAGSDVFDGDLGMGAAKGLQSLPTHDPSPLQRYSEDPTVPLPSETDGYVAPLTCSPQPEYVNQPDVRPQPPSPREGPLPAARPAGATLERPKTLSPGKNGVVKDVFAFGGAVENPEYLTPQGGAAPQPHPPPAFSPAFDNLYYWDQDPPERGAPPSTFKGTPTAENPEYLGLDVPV

Row | SMILES | IC50 [2] [nM] | IC50 [3] [nM] | GI50 [1] [nM]
1 | CCc1ccc(Oc2ccc(Nc3ncnc4ccc(N5CC/C(=C\CN(C)C)C5=O)nc34)cc2C)cn1 [Compound 72, (E)-3-(2-(dimethylamino)ethylidene)-1-(4-((4-((6-ethylpyridin-3-yl)oxy)-3-methylphenyl)amino)pyrido[3,2-d]pyrimidin-6-yl)pyrrolidin-2-one] | 1880 | 44.9 | 5.37
2 | CN(C)C/C=C1\CCN(c2cc3c(Nc4ccc(Oc5ccc6c(c5)ncn6C)c(F)c4)ncnc3cn2)C1=O [Compound 128, (3E)-3-[2-(dimethylamino)ethylidene]-1-[4-({3-fluoro-4-[(1-methyl-1,3-benzodiazol-5-yl)oxy]phenyl}amino)pyrido[3,4-d]pyrimidin-6-yl]pyrrolidin-2-one] | > 10000 | 21.4 | 7.9
3 | C=C1C(=O)N(c2ccc3ncnc(Nc4ccc(Oc5ccc6c(c5)ncn6C)c(C)c4)c3n2)C[C@H]1C [Compound 59, (4S)-4-methyl-1-[4-({3-methyl-4-[(1-methyl-1,3-benzodiazol-5-yl)oxy]phenyl}amino)pyrido[3,2-d]pyrimidin-6-yl]-3-methylidenepyrrolidin-2-one] | 710 | 60.7 | 13.4
4 | Cc1cc(Nc2ncnc3cnc(N4CC/C(=C\CN(C)C)C4=O)cc23)c(F)cc1Oc1ccc2c(c1)ncn2C [Compound 76, (3E)-3-[2-(dimethylamino)ethylidene]-1-[4-({2-fluoro-5-methyl-4-[(1-methyl-1,3-benzodiazol-5-yl)oxy]phenyl}amino)pyrido[3,4-d]pyrimidin-6-yl]pyrrolidin-2-one] | > 10000 | > 10000 | > 500
5 | C=C1CCN(c2cc3c(Nc4ccc(Oc5ccn6ncnc6c5)c(C)c4)ncnc3cc2OCCN(C)C)C1=O [Compound 56, 1-{7-[2-(dimethylamino)ethoxy]-4-[(3-methyl-4-{[1,2,4]triazolo[1,5-a]pyridin-7-yloxy}phenyl)amino]quinazolin-6-yl}-3-methylidenepyrrolidin-2-one] | > 10000 | 6520 | > 500
6 | C=C1C(=O)N(c2ccc3ncnc(Nc4ccc(Oc5ccc6c(c5)ncn6C)c(C)c4)c3c2)C2CC12 (single isomer, unassigned) [Example S33, Enantiomer # 1, 2-[4-({3-methyl-4-[(1-methyl-1,3-benzodiazol-5-yl)oxy]phenyl}amino)quinazolin-6-yl]-4-methylidene-2-azabicyclo[3.1.0]hexan-3-one] | 1090 | 23.2 | 7.57
7 | Cc1cc(Nc2ncnc3ccc(N4CC/C(=C\CCN(C)C)C4=O)nc23)ccc1Oc1ccc2c(c1)ncn2C [Compound 53, (3E)-3-[3-(dimethylamino)propylidene]-1-[4-({3-methyl-4-[(1-methyl-1,3-benzodiazol-5-yl)oxy]phenyl}amino)pyrido[3,2-d]pyrimidin-6-yl]pyrrolidin-2-one] | 76 | 35.6 | 2.05
8 | CN(C)C/C=C1\CCN(c2cc3c(Nc4ccc(Oc5cccnc5)c(F)c4)ncnc3cn2)C1=O [Compound 125, (3E)-3-[2-(dimethylamino)ethylidene]-1-(4-{[3-fluoro-4-(pyridin-3-yloxy)phenyl]amino}pyrido[3,4-d]pyrimidin-6-yl)pyrrolidin-2-one] | 1140 | 42.8 | 56

Continued, in another order:

Row | IC50 [2] [nM] | IC50 [3] [nM] | SMILES | GI50 [1] [nM]
9 | 543 | 15.4 | Cc1cc(Nc2ncnc3ccc(N4C(=O)/C(=C\CN(C)C)C5CC54)nc23)ccc1Oc1ccn2ncnc2c1 (stereo not drawn) [Compound 142, (4Z)-4-[2-(dimethylamino)ethylidene]-2-{4-[(3-methyl-4-{[1,2,4]triazolo[1,5-a]pyridin-7-yloxy}phenyl)amino]pyrido[3,2-d]pyrimidin-6-yl}-2-azabicyclo[3.1.0]hexan-3-one] | 5.8
10 | 942 | 40.3 | CN(C)C/C=C1\CCN(c2ccc3ncnc(Nc4ccc(Oc5ccc6c(c5)ncn6C)c(Cl)c4)c3n2)C1=O [Compound 98, (E)-1-(4-((3-chloro-4-((1-methyl-1H-benzo[d]imidazol-5-yl)oxy)phenyl)amino)pyrido[3,2-d]pyrimidin-6-yl)-3-(2-(dimethylamino)ethylidene)pyrrolidin-2-one] | 1.81
11 | 8160 | 87.2 | C=C1CCN(c2ccc3ncnc(Nc4ccc(Oc5ccc6c(c5)ncn6C)c(C)c4)c3n2)C1=O [Compound 87, 1-(4-((3-methyl-4-((1-methyl-1H-benzo[d]imidazol-5-yl)oxy)phenyl)amino)pyrido[3,2-d]pyrimidin-6-yl)-3-methylenepyrrolidin-2-one; formic acid] | 23
12 | 6680 | 19.1 | Cc1cc(Nc2ncnc3ccc(N4C(=O)C(=CCN(C)C)C5CC54)nc23)ccc1Oc1ccn2ncnc2c1 (single isomer, unassigned) [Example S108, Enantiomer #1, 4-[2-(dimethylamino)ethylidene]-2-{4-[(3-methyl-4-{[1,2,4]triazolo[1,5-a]pyridin-7-yloxy}phenyl)amino]pyrido[3,2-d]pyrimidin-6-yl}-2-azabicyclo[3.1.0]hexan-3-one] | 54
13 | > 10000 | 18.9 | CN(C)C/C=C1\CCN(c2ccc3ncnc(Nc4ccc(Oc5ccc6c(c5)ncn6C)c(F)c4)c3n2)C1=O [Compound 91, (3E)-3-[2-(dimethylamino)ethylidene]-1-[4-({3-fluoro-4-[(1-methyl-1,3-benzodiazol-5-yl)oxy]phenyl}amino)pyrido[3,2-d]pyrimidin-6-yl]pyrrolidin-2-one] | 2.08
14 | > 10000 | 30.7 | Cc1cc(Nc2ncnc3ccc(N4CC/C(=C\CCN5CCN(C)CC5)C4=O)cc23)ccc1Oc1ccn2ncnc2c1 [Compound 40, (3E)-1-{4-[(3-methyl-4-{[1,2,4]triazolo[1,5-a]pyridin-7-yloxy}phenyl)amino]quinazolin-6-yl}-3-[3-(4-methylpiperazin-1-yl)propylidene]pyrrolidin-2-one] | > 500
15 | 1940 | 26.2 | Cc1cc(Nc2ncnc3ccc(N4CC/C(=C\CCN(C)C)C4=O)cc23)ccc1Oc1ccc2c(c1)ncn2C [Compound 44, (3E)-3-[3-(dimethylamino)propylidene]-1-[4-({3-methyl-4-[(1-methyl-1,3-benzodiazol-5-yl)oxy]phenyl}amino)quinazolin-6-yl]pyrrolidin-2-one] | 14.5
16 | 1160 | 22.3 | Cc1cc(Nc2ncnc3cnc(N4CC/C(=C\CN(C)C)C4=O)cc23)ccc1Oc1ccc2c(c1)nnn2C [Compound 101, (E)-3-(2-(dimethylamino)ethylidene)-1-(4-((3-methyl-4-((1-methyl-1H-benzo[d][1,2,3]triazol-5-yl)oxy)phenyl)amino)pyrido[3,4-d]pyrimidin-6-yl)pyrrolidin-2-one] | 4.32
17 | 1990 | 34.4 | Cc1cc(Nc2ncnc3ccc(N4CC/C(=C\CN(C)C)C4=O)nc23)c(F)cc1Oc1ccc2c(c1)ncn2C [Compound 70, (3E)-3-[2-(dimethylamino)ethylidene]-1-[4-({2-fluoro-5-methyl-4-[(1-methyl-1,3-benzodiazol-5-yl)oxy]phenyl}amino)pyrido[3,2-d]pyrimidin-6-yl]pyrrolidin-2-one] | 4.29
